Data from patent publication US20230068020A1, “MACROLIDE COMPOUND AND ITS USE OF TREATMENT CHRONIC RESPIRATORY DISEASE” (priority 2020, published 2023).

Experiments:
Assay type in all cases: cell-based
[1] = tested on: THP-1 cell; experiment: Cell viability (LD50) in THP-1 differentiation test; settings: human
Procedure: The medium lethal dose (LD50) is the dosage of a compound that reduces the cell viability by 50%, and is determined using non-linear logistic regression.

[2] = tested on: Acinetobacter baumanii ATCC 17978; experiment: Antibacterial activity, agar dilution MIC; settings: Acinetobacter baumannii, ATCC17978, 20-24 hrs incubation, read-out: minimum inhibitory concentration MIC
Procedure: (§1) The antibacterial activity of Erythromycin and compounds of examples were evaluated by the agar dilution method, following the guidelines of the CLSI. […] Briefly, bacteria were grown overnight in adapted media (MHIIA with 5% of sheep blood for Streptococcus pneumoniae and Haemophilus influenzae, and MHIIA for the other bacteria strains) at 35° C., 5% CO2.
(§2) Cultures were centrifuged at 3000×g for 15 min. Pellets were diluted with 5 mls cold PBS and the OD600nm was adjusted to 10^8 CFU.mL^−1 with a spectrometer. Bacteria were then added to 96-well test plates. Compounds were diluted in DMSO in a 2 fold steps from 20 mg/ml in DMSO in 96 well plated and transferred to the test plate. During the incubation, the plate was maintained at 35° C., 5% CO2.
(§3) The MICs for Erythromycin and compounds of examples were determined after 20-24 hrs incubation.

[3] = tested on: Streptococcus pneumoniae ATCC 6301; experiment: Antibacterial activity, agar dilution MIC; settings: ATCC6301, 20-24 hrs incubation, read-out: minimum inhibitory concentration MIC
Procedure: as §1, §2, §3

[4] = tested on: Enterococcus faecalis ATCC 29212; experiment: Antibacterial activity, agar dilution MIC; settings: ATCC29212, 20-24 hrs incubation, read-out: minimum inhibitory concentration MIC
Procedure: as §1, §2, §3

[5] = tested on: Acinetobacter baumannii ATCC-BAA-1605; experiment: Antibacterial activity, agar dilution MIC; settings: ATCCBAA1605, 20-24 hrs incubation, read-out: minimum inhibitory concentration MIC
Procedure: as §1, §2, §3

[6] = tested on: Staphylococcus aureus NRS 384; experiment: Antibacterial activity, agar dilution MIC; settings: NRS384, 20-24 hrs incubation, read-out: minimum inhibitory concentration MIC
Procedure: as §1, §2, §3

[7] = tested on: Streptococcus pyogenes ATCC BAA-572; experiment: Antibacterial activity, agar dilution MIC; settings: ATCCBAA572, 20-24 hrs incubation, read-out: minimum inhibitory concentration MIC
Procedure: as §1, §2, §3

[8] = tested on: Streptococcus pneumoniae ATCC 49619; experiment: Antibacterial activity, agar dilution MIC; settings: ATCC49619, 20-24 hrs incubation, read-out: minimum inhibitory concentration MIC
Procedure: as §1, §2, §3

[9] = tested on: Haemophilus influenzae ATCC 49247; experiment: Antibacterial activity, agar dilution MIC; settings: ATCC49247, 20-24 hrs incubation, read-out: minimum inhibitory concentration MIC
Procedure: as §1, §2, §3

[10] = tested on: Moraxella catarrhalis ATCC 43617; experiment: Antibacterial activity, agar dilution MIC; settings: ATCC43617, 20-24 hrs incubation, read-out: minimum inhibitory concentration MIC
Procedure: as §1, §2, §3

[11] = tested on: Staphylococcus aureus ATCC 29213; experiment: Antibacterial activity, agar dilution MIC; settings: ATCC29213, 20-24 hrs incubation, read-out: minimum inhibitory concentration MIC
Procedure: as §1, §2, §3

[12] = tested on: IL-8 expression in BEAS-2B cell; experiment: LPS induced IL-8 release by BEAS-2B (ELISA); settings: for Maximum Inhibition: IL-8 expression in BEAS-2B cells, LPS; for IC10: concentration inhibiting IL-8 production on BEAS-2B by 10%, LPS 20 μg/mL
Procedure: The inhibitory effect of compounds of Examples on the IL-8 expression in BEAS-2B cell was tested using the following method. BEAS-2B was purchased from ATCC (American Type Culture Collection, Manassas, Va.). Cells were maintained in growth medium (LHC-9) and cultured at 37° C. under 5% CO2. Compounds were dissolved in 0.1% DMSO. Erythromycin was used as a positive control.
For the assessment of the effect of compounds of Examples on IL-8 expression inhibition in BEAS-2B cell line, cells were plated in 24 well plate at a density of 100,000/mL, in a final volume of 1 mL of assay medium. Cells were incubated at 37° C., 5% CO2 for 1 day. After the incubation, compounds were added at day 2 and LPS was added at day 3. A compound source plate was prepared by triplicate five-point 10-fold or 2-fold serial dilutions in DMSO, beginning at 1 mM (final top concentration of compounds of Examples in the assay was 100 μM and the DMSO was 0.1%). The positive control consisted of cells treated with 100 μM erythromycin and negative control was consisted of 0.1% DMSO treated cells. LPS stock solution at 5 mg/mL was made by dissolving 10 mg of LPS powder into 2 mL of ddH2O and aliquoted to 100 μL per vial. Final concentration of LPS in the assay was […] by making 125-fold dilution of stock solution with medium.
Specific immunoreactivity for IL-8 in culture supernatants were measured by a commercially available ELISA kits (R&D Systems, Inc., Minneapolis, Minn.). Each sample was assayed in duplicates as recommended by the manufacture. The concentration of compounds of Examples inhibiting IL-8 production on BEAS-2B by 10% was estimated from a 4-parametric of the normalized dose response curve. (IC10)

[13] = tested on: THP-1 cell; experiment: Differentiation of monocyte to macrophage in THP-1 cell line; settings: Homo sapiens; for EC50: THP-1 differentiate to macrophage, PMA, 96 hrs incubation; for Emax: ratio of best effect of compound to that of erythromycin 100 uM, THP-1 differentiation, read-out: Maximal activation level
Procedure: The THP-1 cell line was purchased from ATCC (American Type Culture Collection, Manassas, Va.). Cells were maintained in growth medium (RPMI-1640) with supplemented with 10% heat inactivated bovine serum, 100× Glutamax medium and 0.05 mM β-Mercaptoethanol at 37° C. under 5% CO2. Compounds were dissolved in 0.1% DMSO. Erythromycin was used as a positive control.
For the assessment of the effect of compounds of the present invention on differentiation of monocyte to macrophage in THP-1 cell line, cells were collected and centrifuged at 900 rpm for 4 minutes. The cell density was adjusted to 2.5×10^5/mL. cell suspension of 400 μL was added to each well of 48-well plate following the plate layout. PMA 1 mg, a compound can induce monocyte differentiation, was dissolved in 10 mL DMSO to form 100 μg/mL solution and aliquote it into 1 mL per vial. 1 mL solution can be further aliquoted into 10 μL per vial and stored the aliquots at −20° C. Make 10-fold dilution of PMA with DMSO and then 500-fold dilution with complete medium. 50 μL solution were then added to each well of 48-well plate following the plate layout. Erythromycin and compounds of examples at stock concentration of 10 mM was serially diluted at 10-fold in DMSO. 50 μL solution was added to each well of 48-well plate following the plate layout. After 96 hrs incubation at 37° C., 5% CO2, the plate was washed with DPBS for three times to remove non-adherent cells for three times. Complete medium 180 μL and alarmar blue 20 μL was added to each well. The fluorescent intensity was read at excitation 530 nm and emission 590 nm using PerkinElmer Victor3 after 3 hours plate incubation.
The differentiation activity of compounds of Examples is compared to that of 100 μM erythromycin and the results are shown in FIG. 1 and Table 3.

[14] = tested on: BEAS-2B cell; experiment: Cell viability (LD10) in BEAS-2B IL-8 test; settings: BEAS-2B cell viability
Source text: The lethal dose (LD10) is the dosage of a compound that reduces the cell viability by […], and is estimated from non-linear logistic regression.

Row | Compound | LD50 [1] [µM] | MIC [2] [µg/mL] | MIC [3] [µg/mL] | MIC [4] [µg/mL] | MIC [5] [µg/mL] | MIC [6] [µg/mL] | MIC [7] [µg/mL] | MIC [8] [µg/mL] | MIC [9] [µg/mL] | MIC [10] [µg/mL] | MIC [11] [µg/mL] | Maximum Inhibition [12] [%] | IC10 [12] [µM] | EC50 [13] [µM] | Emax [13] [%] | LD10 [14] [µM] | IL-8 inhibitory activity compared with erythromycin ([12]; at 100 μM concentration, BEAS-2B)
1 | CC[C@H]1OC(=O)[C@H](C)[C@@H](O[C@H]2C[C@@](C)(OC)[C@@H](O)[C@H](C)O2)[C@H](C)[C@@H](O[C@H]2C[C@@H](NC)C[C@@H](C)O2)[C@@](C)(O)C[C@@H](C)C(=O)[C@H](C)[C@@H](O)[C@]1(C)O [LY101-25, (3R,4S,5S,6R,9R,11R,12R,13S,14R)-14-ethyl-7,12,13-trihydroxy-4-(((2R,4R,5S,6S)-5-hydroxy-4-methoxy-4,6-dimethyltetrahydro-2H-pyran-2-yl)oxy)-3,5,7,9,11,13-hexamethyl-6-(((2S,4S,6R)-6-methyl-4-(methylamino)tetrahydro-2H-pyran-2-yl)oxy)oxacyclotetradecane-2,10-dione] | 21.1 ± 5.3 | > 128 | > 128 | > 128 | > 128 | > 128 | > 128 | > 128 | > 128 | > 128 | > 128 | 53 | 1 | 1 ± 0.3 | 540 ± 110 | 15 | 
2 | CC[C@H]1OC(=O)[C@H](C)[C@@H](OC2CC(C)(OC)C(O)C(C)O2)[C@H](C)[C@@H](OC2CC(N(C)C(C)=O)CC(C)O2)C(C)(O)C[C@@H](C)C(=O)[C@H](C)[C@@H](O)[C@]1(C)O (stereo in doubt) [LY101-22, N-((2S,4S,6R)-2-(((3R,4S,5S,6R,7R,9R,11R,12R,13S,14R)-14-ethyl-7,12,13-trihydroxy-4-(((2R,4R,5S,6S)-5-hydroxy-4-methoxy-4,6-dimethyltetrahydro-2H-pyran-2-yl)oxy)-3,5,7,9,11,13-hexamethyl-2,10-dioxooxacyclotetradecan-6-yl)oxy)-6-methyltetrahydro-2H-pyran-4-yl)-N-methylacetamide] | 125 ± 7.1 | > 128 | > 128 | > 128 | > 128 | > 128 | > 128 | > 128 | > 128 | > 128 | > 128 | 33 | 10 | 12.1 ± 2.7 | 790 ± 50 | 100 | more potent inhibitory activity than erythromycin
3 | CC[C@H]1OC(=O)[C@H](C)[C@@H](OC2CC(C)(OC)C(O)C(C)O2)[C@H](C)[C@@H](OC2CC(N(C)C)CC(C)O2)[C@@](C)(O)C[C@@H](C)/C(=N\OCOCCOC)[C@H](C)[C@@H](O)[C@]1(C)O (stereo partly shown) [LY101-39] | 90.0 ± 18.4 | > 128 | > 128 | > 128 | > 128 | > 128 | > 128 | > 128 | > 128 | > 128 | > 128 | 35 | 20 | 10.1 ± 2.2 | 740 ± 80 | 100 | 
